# Experimental data published in patent US20100151104A1, “Preservative System For Beverages Based On Combinations Of Trans-Cinnamic Acid, Lauric Arginate, And Dimethyl Dicarbonate” (priority 2008, published 2010).
# What was measured:
# [1] = tested on: mold spores (Byssochlamyus nieva and Paecilomyces variotti); assay: Germination of bio-indicator mold spores with ascorbic acid and potassium sorbate; assay type: cell-based
# Excerpt: Ascorbic acid may be incorporated as part of the microbiological chemical preservation system. Ascorbic acid is not generally considered an antimicrobial. Instead, ascorbic acid is understood to “preserve” food ingredients against oxidation. In this respect, ascorbic acid is understood to be “anti-oxidant” preservative.
# [2] = tested on: vegetative forms of yeast, mold, and bacteria; details: reported by the manufacturer of DMDC; cited from earlier work
# [3] = tested on: bio-indicator organisms (Zygosaccharomyce baili, Brettanomyces species, Saccharomyces cerevisiae, Paecilomyces lilacinus, Zygosaccharomyces bisporus …); assay: Example 4: efficacy of DMDC alone in commercial product types and apple juice medium, 16 weeks; assay type: cell-based
# Protocol: The efficacy of DMDC in a range of existing commercial product types was established in order to establish a baseline for future testing of products in development. A separate test of efficacy of DMDC alone in the test apple juice medium is used in comparison. Simply, four different products that are packaged without preservatives (aseptic package) were purchased from local markets.
# The base test beverage formulation (Apple Juice Medium) was prepared as in other tests herewithin, and consisted of 4% apple juice, 68 g sucrose/L, 52 g glucose/L, 2 g fructose/L prepared in batch water that was formulated to 90 ppm hardness with calcium chloride and magnesium chloride. A pH of 3.4 was achieved through combinations of malic acid and sodium malate
# Product was transferred to test vessels and vessels were inoculated with bio-indicator organisms. Immediately after inoculation, the test vessels were sealed with septum seal that allowed dosing of DMDC by Hamilton syringe. Dimethyl dicarbonate stock solution consisted of 1 ml of dimethyl dicarbonate (1.25 g) in 49 ml of 100% ethanol (25 mg/ml). […] After dosing with DMDC, the content of each test vessel was immediately mixed by vortex mixing. All testing was performed at ambient and test solutions were at ambient. […]
# [4] = tested on: bio-indicator organisms (Zygosaccharomyce baili, Brettanomyces species, Saccharomyces cerevisiae, Paecilomyces lilacinus, Zygosaccharomyces bisporus …); details: FIG. 2a; absence of cinnamic acid; pH 3.4; 16 weeks
# Excerpt: A single preparation of base beverage was employed to prepare each of five tests and consisted of 4% apple juice, 68 g sucrose/L, 52 g glucose/L, 2 g fructose/L prepared in batch water that was formulated to 90 ppm hardness with calcium chloride and magnesium chloride. A pH of 3.4 was achieved through combinations of malic acid and sodium malate for all preparations regardless of the presence or absence of lauric arginate or cinnamic acid. The total combined quantity of sodium malate and malic acid was near constant, but the ratio of malic acid and malate varied slightly given the presence or absence of lauric arginate or cinnamic acid. […] Where required, lauric arginate or cinnamic acid was supplemented from separately prepared stock solutions. Dimethyl dicarbonate was delivered by means of hypodermic needle (Hamilton syringe) through septum that sealed the test vessel against loss of moisture. Dimethyl dicarbonate stock solution consisted of 1 ml of dimethyl dicarbonate (1.25 g) in 49 ml of 100% ethanol (25 mg/ml).
# Each of the five tests employed the same bio-indicator organisms; Growth (+) versus no growth (−) established by visual inspection or spectrophotometrically. […]
# [5] = tested on: bio-indicator organisms; mold strains M1 (Paecilomyces/Byssochalmys nieva) and M6 (Talaromyces flavus var. flavus); assay: Example 6: growth/no growth in enhanced water product pH 4.5, 16 weeks; assay type: cell-based; details: FIG. 5a; enhanced water pH 4.5; DMDC singular antimicrobial agent
# Protocol: A single preparation of base beverage was employed to prepare each of five tests. The beverage formulation chosen mimics that of an enhanced water product and is composed per liter as follows 37.2 mg Acesulfame K+; 100mg Vitamin E acetate, 54.1 mg Vitamin B mix, 331 mg sucralose 748 mg grape flavor, 3236 mg of liquid sucrose, 26.5 mg antifoam, 20 mg polysorbate. The ingredients were added to RO water adjusted to 90 ppm hardness with calcium chloride and magnesium chloride. The acidity of the product was adjusted to pH 4.5 with a mixture of succinic acid and Sodium succinate dibasic hexadydrate. The total concentration of succinic acid in solution was approximately 8 mM.
# Each of the five tests employed the same bio-indicator organisms; Growth (+) versus no growth (−) established by visual inspection or spectrophotometrically. The organisms and the key (code) employed in FIGS. 5a-5e are as follows: Spores, M1 Paecilomyces/Byssochalmys nieva, Pespi isolate D16; C-7UP, Brettanomyces species, Pepsi Isolate; Spores, M6, Talaromyces flavus var. flavus ATCC 10512; Brettanomyces species, Pepsi isolate H202; Acetobacter species, Pepsi isolate “Atlanta”; an ascospore preparation of Saccharomyces cerevisiae strain 99(Spore) and Y3, Zygosaccharomyce baili, Pepsi isolate 906;. Samples were incubated for period of 16 weeks at 25° C. in vessels protective against evaporation. […]
# [6] = Example 8: growth/no growth in energy beverage pH 2.85, 16 weeks; assay type: cell-based; details: pH 2.9, read-out: minimum inhibitory concentration of DMDC required to preserve
# Protocol: A single preparation of base beverage was employed to prepare each of five tests. The beverage formulation chosen mimics that of a Energy beverage and is composed per liter as follows: 209 mg Rebaudioside A (REB A), 248 mg Potassium Citrate 248 mg Flavor-vitamin mixture, 248 mg calcium lactate, 298 mg Xanthan gum, 668 mg citric acid 995 mg color, 995 mg Pomegranate flavor, 24900 mg erythritol. The ingredients were added to RO water adjusted to 90 ppm hardness with calcium chloride and magnesium chloride. The acidity of the product was adjusted to pH 2.85 with a mixture of citric acid and sodium citrate.
# Each of the five tests employed the same bio-indicator organisms; Growth (+) versus no growth (−) established by visual inspection or spectrophotometrically. The organisms and the key (code) employed in FIGS. 7a-7e are as follows: Spores, M1 Paecilomyces/Byssochalmys nieva, Pespi isolate D16; C-8UP, Brettanomyces species, Pepsi Isolate; M6, Talaromyces flavus var. flavus ATCC 10512; Brettanomyces species, Pepsi isolate H2O2; Spores, M12 Penicillium camebertii (Pepsi isolate D1)”; an ascospore preparation of Saccharomyces cerevisiae strain 99(Spore) and Y3, Zygosaccharomyce baili Pepsi isolate 906;. Samples were incubated for period of 16 weeks at 25° C. in vessels protective against evaporation. The results are depicted in FIGS. 7a-7e.
# [7] = tested on: bio-indicator organisms; mold strains M1 (Paecilomyces/Byssochalmys nieva) and M6 (Talaromyces flavus var. flavus); assay: Example 7: growth/no growth in green tea beverage pH 5.5, 16 weeks; assay type: cell-based; details: pH 5.5, read-out: minimum inhibitory concentration of DMDC required to preserve
# Protocol: A single preparation of base beverage was employed to prepare each of five tests. The beverage formulation chosen mimics that of a green tea beverage composed per liter as follows: 170 mg Citrus Pectin; 500 mg honey granules 550 mg Acerola Dry Vitamin C, 1,332 mg green tea solid, 2,046 mg tea flavor; 65,590 mg granulated sucrose. The ingredients were added to RO water adjusted to 90 ppm hardness with calcium chloride and magnesium chloride. The acidity of the product was adjusted to pH 5.5 with a mixture of succinic acid and sodium succinate dibasic hexadydrate. The total concentration of succinic acid in solution was approximately 8 mM.
# Each of the five tests employed the same bio-indicator organisms; Growth (+) versus no growth (−) established by visual inspection or spectrophotometrically. The organisms and the key (code) employed in FIGS. 6a-6e are as follows: Spores, M1 Paecilomyces/Byssochalmys nieva, Pespi isolate D16; C-7UP, Brettanomyces species, Pepsi Isolate; Spores, M6, Talaromyces flavus var. flavus ATCC 10512; Brettanomyces species, Pepsi isolate H202; Acetobacter species, Pepsi isolate “Atlanta”; an ascospore preparation of Saccharomyces cerevisiae strain 99(Spore) and Y3, Zygosaccharomyce baili, Pepsi isolate 906;. Samples were incubated for period of 16 weeks at 25° C. in vessels protective against evaporation. The results are depicted in FIGS. 6a-6e.
structure (smiles),measurement,setting,value
O=C1O[C@H]([C@@H](O)CO)C(O)=C1O [ascorbic acid],effect on spore germination,[1]; ascorbic acid alone at 400 ppm,able to retard germination
"C/C=C/C=C/C(=O)[O-].[K+] [Potassium sorbate, Potassium Sorbate, reference compound]",prevention of spore germination,[1]; Potassium sorbate alone at concentrations below 200 ppm,unable to prevent spore germination
"COC(=O)OC(=O)OC [DMDC, dimethyl dicarbonate]",concentration required to stabilize beverage for 16 weeks,[2],at least 250 mg/liter
same,stability against spoilage,"[3]; commercial tea beverage (pH 3.3) with honey, DMDC 2.61 mM (350 ppm)",unstable against spoilage
same,DMDC concentration that stabilized the formulation,"[3]; green tea formulation containing lemon flavor, DMDC alone",0.75 mM
same,DMDC required to inhibit the growth of all bio-indicator organisms,[4],0.95 mM
same,concentration of DMDC tolerated by M1 and M6,[5],≥ 200 ppm
same,MIC,[6],< 125 µg/mL
same,MIC,[7],> 225 µg/mL
